The values that follow come from BindingDB's records for doi:10.1021/ml300471d (Genfit, 2013).

In this experiment the target is T1, Nuclear receptor ROR-alpha (Homo sapiens, UniProt P35398).
T1 sequence (P35398 whole entry): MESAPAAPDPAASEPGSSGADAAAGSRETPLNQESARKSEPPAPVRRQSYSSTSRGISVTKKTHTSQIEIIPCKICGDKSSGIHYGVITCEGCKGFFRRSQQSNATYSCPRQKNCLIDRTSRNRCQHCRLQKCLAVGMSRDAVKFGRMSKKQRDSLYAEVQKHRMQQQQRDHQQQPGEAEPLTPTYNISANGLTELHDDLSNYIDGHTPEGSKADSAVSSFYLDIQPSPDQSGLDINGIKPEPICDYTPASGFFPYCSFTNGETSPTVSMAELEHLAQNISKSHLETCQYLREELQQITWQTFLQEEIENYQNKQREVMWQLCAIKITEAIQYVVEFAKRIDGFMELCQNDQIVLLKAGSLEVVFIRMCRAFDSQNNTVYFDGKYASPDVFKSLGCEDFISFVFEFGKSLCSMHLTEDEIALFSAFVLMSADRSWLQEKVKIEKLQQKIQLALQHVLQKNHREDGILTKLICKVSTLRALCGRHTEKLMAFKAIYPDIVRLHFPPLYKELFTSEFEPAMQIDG
Briefly: Partial agonist activity at GST-fussed RORalpha (unknown origin) assessed as recruitment of TIF2-BAP protein after overnight incubation by pull down assay.

With `CCOC(=O)C1C(C)=NC(=O)N(C)C1c1ccc(OCc2ccccc2)c(OC)c1` (stereo unspecified), the EC50 (in general, the midpoint of the concentration-response curve) was > 30 µM.

In the case of `CC1=NC(=O)NC(c2ccc(OCc3ccccc3)cc2)C1C(=O)OCC(F)(F)F` (stereo unspecified), the EC50 is > 30 µM. `CCOC(=O)C1C(CC)=NC(=O)NC1c1ccc(OCc2ccccc2)c(OC)c1` (stereo unspecified): the EC50 was > 30 µM. Turning to `COc1cc(C2NC(=O)N=C(C)C2C(=O)OCc2ccccc2)ccc1OCc1ccccc1` (stereo unspecified), the EC50 was > 30 µM. For `COc1cc(C2NC(=O)N=C(C)C2C(=O)OCCSC)ccc1OCc1ccccc1` (stereo unspecified), the EC50 was > 30 µM. As for `COc1cc(C2NC(=O)N=C(C)C2C(=O)OCC(F)(F)F)ccc1OCc1ccccc1` (stereo unspecified), the EC50 is > 30 µM.
